Values quoted from earlier work, collected in patent US8440172B2, “Stable soluble salts of phenylbenzimidazole sulfonic acid at PHS at or below 7.0” (Symrise AG, priority 2007, dated 2013).

Columns and labels:
[1] = free acid, not neutralised

- pH of cosmetic formulation needed to prevent the free acid from recrystallising (Johncock, Cosmetic & Toiletries Magazine 1999): above 6.8
- pH at which crystal formation starts (cosmetic formulation, Johncock 1999): 7.0
- solubility in water [1]: 0.25 % w/w
Structure (SMILES): O=S(=O)(O)c1ccc2nc(-c3ccccc3)[nH]c2c1 [phenylbenzimidazole sulfonic acid, 2-phenylbenzimidazole-5-sulfonic acid]
